Test results from patent publication US20230085307A1, “PYRIDAZINONE COMPOUND AND HERBICIDE” (NISSAN CHEMICAL CORPORATION, priority 2019, published 2023).

Key:
[1] = tested on: chickweed; assay: Test Example 4: herbicidal effect by soil treatment (Table 19, symbol P); assay type: in vivo, common chickweed (Stellaria media); conditions: 320 g/ha
How it was run: (§1)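 In this soil treatment, the formulated compound reached the seeds only through the soil: seeds were buried about 1.5 cm deep in sterilized diluvial soil, then the diluted emulsion was sprayed over the surface. After three weeks at 25° C. to 30° C. in a greenhouse, effects were graded on criteria from an earlier test.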

[2] = tested on: late watergrass; assay: Test Example 2: herbicidal activity, application during weed generation under submerged conditions (Table 17, symbol A); assay type: in vivo, late watergrass (Echinochloa oryzicola); conditions: AAH 320 g/ha; application during weed generation, submerged conditions
How it was run: (§2)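 3-wk visual-criteria score after one water-surface dose. Emulsion formulation, water-diluted to set rate; applied at 1–2 leaf stage; alluvial soil, 4 cm standing water; seeds co-sown; greenhouse 25–30° C.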

[3] = tested on: green foxtail; assay: Test Example 5: herbicidal effect by foliage application, plastic box (Table 20, symbol G); assay type: in vivo, green foxtail (Setaria viridis); conditions: foliage application, 320 g/ha, 3 weeks after application
How it was run: (§3)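 Plants were sown into sterilized diluvial soil under about 1.5 cm cover and kept in a greenhouse at 25° C. to 30° C. Fourteen days on, foliage received an even spray of the diluted emulsion. Herbicidal or crop effect was judged three weeks afterwards.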

[4] = tested on: green foxtail; assay: Test Example 4: herbicidal effect by soil treatment (Table 19, symbol G); assay type: in vivo, green foxtail (Setaria viridis); conditions: 320 g/ha
How it was run: as §1

[5] = tested on: Italian ryegrass; assay: Test Example 4: herbicidal effect by soil treatment (Table 19, symbol K); assay type: in vivo, Italian ryegrass (Lolium multiflorum); conditions: 320 g/ha
How it was run: as §1

[6] = tested on: barnyard grass; assay: Test Example 5: herbicidal effect by foliage application, plastic box (Table 20, symbol H); assay type: in vivo, barnyard grass (Echinochloa crus-galli); conditions: foliage application, 320 g/ha, 3 weeks after application
How it was run: as §3

[7] = tested on: rice flat sedge; assay: Test Example 3: herbicidal effect by foliage application, Wagner pot (Table 18, symbol E); assay type: in vivo, rice flat sedge (Cyperus iria); conditions: 320 g/ha
How it was run: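 Plants were sown in alluvial soil held under 0.1–0.5 cm standing water and grown 14 days in a greenhouse at 25–30 °C. An emulsifiable formulation, water-diluted to the set dose, was then sprayed onto the foliage, and effects were scored three weeks later using previously defined criteria.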

[8] = tested on: oval-leafed pondweed; assay: Test Example 1: herbicidal activity, application before weed generation under submerged conditions (Table 16, symbol C); assay type: in vivo, oval-leafed pondweed (Monochoria vaginalis); conditions: 320 g/ha applied herbicide
How it was run: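 Emulsion formulation, water-diluted to set dose, was put onto the flooded surface (4 cm depth, alluvial soil) the same day weeds were sown and 2.5-leaf rice transplanted. After 3 weeks at 25-30 °C under glass, each species was rated 0 (≤5% kill) to 5 (≥90% kill).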

[9] = tested on: blackgrass; assay: Test Example 4: herbicidal effect by soil treatment (Table 19, symbol J); assay type: in vivo, blackgrass (Alopecurus myosuroides); conditions: 320 g/ha
How it was run: as §1

[10] = tested on: wild oat; assay: Test Example 4: herbicidal effect by soil treatment (Table 19, symbol I); assay type: in vivo, wild oat (Avena fatua); conditions: 320 g/ha
How it was run: as §1

[11] = tested on: blackgrass; assay: Test Example 5: herbicidal effect by foliage application, plastic box (Table 20, symbol J); assay type: in vivo, blackgrass (Alopecurus myosuroides); conditions: foliage application, 320 g/ha, 3 weeks after application
How it was run: as §3

[12] = tested on: redroot pigweed; assay: Test Example 4: herbicidal effect by soil treatment (Table 19, symbol N); assay type: in vivo, redroot pigweed (Amaranthus retroflexus); conditions: 320 g/ha
How it was run: as §1

[13] = tested on: oval-leafed pondweed; assay: Test Example 2: herbicidal activity, application during weed generation under submerged conditions (Table 17, symbol C); assay type: in vivo, oval-leafed pondweed (Monochoria vaginalis); conditions: AAH 320 g/ha; application during weed generation, submerged conditions
How it was run: as §2

[14] = tested on: persian speedwell; assay: Test Example 4: herbicidal effect by soil treatment (Table 19, symbol R); assay type: in vivo, Persian speedwell (Veronica persica); conditions: 320 g/ha
How it was run: as §1

SMILES: CCCC(=O)Oc1c(C)nn(C)c(=O)c1-c1c(-c2ccc(OC(C)C)cc2)sc2ccc(F)cc12 [2-035]
- herbicidal effect rating, P: chickweed [1]: 3 (Herbicidal rate of 40% or more and less than 70%)
- herbicidal effect rating, A: late watergrass [2]: 1 (Herbicidal rate of 5% or more and less than 20%)
- effect on green foxtail (G) [3]: 4 (Herbicidal rate of 70% or more and less than 90%)
- herbicidal effect rating, G: green foxtail [4]: 3 (Herbicidal rate of 40% or more and less than 70%)
- herbicidal effect rating, K: Italian ryegrass [5]: 0 (Herbicidal rate of 5% or less (almost no effect))
- effect on barnyard grass (H) [6]: 5 (Herbicidal rate of 90% or more (almost completely withered))
- herbicidal effect on E (rice flat sedge), rating 0-5 [7]: 5 (Herbicidal rate of 90% or more (almost completely withered))
- Herbicidal effect on C: oval-leafed pondweed (grade 0-5) [8]: 4 (Herbicidal rate of 70% or more and less than 90%)
- herbicidal effect rating, J: blackgrass [9]: 0 (Herbicidal rate of 5% or less (almost no effect))
- herbicidal effect rating, I: wild oat [10]: 0 (Herbicidal rate of 5% or less (almost no effect))
- effect on blackgrass (J) [11]: 3 (Herbicidal rate of 40% or more and less than 70%)
- herbicidal effect rating, N: redroot pigweed [12]: 5 (Herbicidal rate of 90% or more (almost completely withered))
- herbicidal effect rating, C: oval-leafed pondweed [13]: 4 (Herbicidal rate of 70% or more and less than 90%)
- herbicidal effect rating, R: persian speedwell [14]: 5 (Herbicidal rate of 90% or more (almost completely withered))

SMILES: CCCCOc1ccc(-c2sc3ccc(F)cc3c2-c2c(OC(=O)CCC)c(C)nn(C)c2=O)cc1 [2-037]
- herbicidal effect rating, P: chickweed [1]: 1 (Herbicidal rate of 5% or more and less than 20%)
- herbicidal effect rating, A: late watergrass [2]: 0 (Herbicidal rate of 5% or less (almost no effect))
- effect on green foxtail (G) [3]: 3 (Herbicidal rate of 40% or more and less than 70%)
- herbicidal effect rating, G: green foxtail [4]: 2 (Herbicidal rate of 20% or more and less than 40%)
- herbicidal effect rating, K: Italian ryegrass [5]: 0 (Herbicidal rate of 5% or less (almost no effect))
- effect on barnyard grass (H) [6]: 2 (Herbicidal rate of 20% or more and less than 40%)
- herbicidal effect on E (rice flat sedge), rating 0-5 [7]: 4 (Herbicidal rate of 70% or more and less than 90%)
- Herbicidal effect on C: oval-leafed pondweed (grade 0-5) [8]: 3 (Herbicidal rate of 40% or more and less than 70%)
- herbicidal effect rating, J: blackgrass [9]: 0 (Herbicidal rate of 5% or less (almost no effect))
- herbicidal effect rating, I: wild oat [10]: 0 (Herbicidal rate of 5% or less (almost no effect))
- effect on blackgrass (J) [11]: 0 (Herbicidal rate of 5% or less (almost no effect))
- herbicidal effect rating, N: redroot pigweed [12]: 5 (Herbicidal rate of 90% or more (almost completely withered))
- herbicidal effect rating, C: oval-leafed pondweed [13]: 3 (Herbicidal rate of 40% or more and less than 70%)
- herbicidal effect rating, R: persian speedwell [14]: 3 (Herbicidal rate of 40% or more and less than 70%)

SMILES: CCCCCOc1ccc(-c2sc3ccc(F)cc3c2-c2c(OC(=O)CCC)c(C)nn(C)c2=O)cc1 [2-038]
- herbicidal effect rating, P: chickweed [1]: 1 (Herbicidal rate of 5% or more and less than 20%)
- herbicidal effect rating, A: late watergrass [2]: 2 (Herbicidal rate of 20% or more and less than 40%)
- effect on green foxtail (G) [3]: 1 (Herbicidal rate of 5% or more and less than 20%)
- herbicidal effect rating, G: green foxtail [4]: 0 (Herbicidal rate of 5% or less (almost no effect))
- herbicidal effect rating, K: Italian ryegrass [5]: 0 (Herbicidal rate of 5% or less (almost no effect))
- effect on barnyard grass (H) [6]: 0 (Herbicidal rate of 5% or less (almost no effect))
- herbicidal effect on E (rice flat sedge), rating 0-5 [7]: 4 (Herbicidal rate of 70% or more and less than 90%)
- Herbicidal effect on C: oval-leafed pondweed (grade 0-5) [8]: 0 (Herbicidal rate of 5% or less (almost no effect))
- herbicidal effect rating, J: blackgrass [9]: 0 (Herbicidal rate of 5% or less (almost no effect))
- herbicidal effect rating, I: wild oat [10]: 0 (Herbicidal rate of 5% or less (almost no effect))
- effect on blackgrass (J) [11]: 0 (Herbicidal rate of 5% or less (almost no effect))
- herbicidal effect rating, N: redroot pigweed [12]: 3 (Herbicidal rate of 40% or more and less than 70%)
- herbicidal effect rating, C: oval-leafed pondweed [13]: 0 (Herbicidal rate of 5% or less (almost no effect))
- herbicidal effect rating, R: persian speedwell [14]: 4 (Herbicidal rate of 70% or more and less than 90%)

SMILES: Cc1nn(C)c(=O)c(-c2c(-c3ccc(OC4CCCC4)cc3)sc3ccc(F)cc23)c1O [2-039]
- herbicidal effect rating, P: chickweed [1]: 3 (Herbicidal rate of 40% or more and less than 70%)
- herbicidal effect rating, A: late watergrass [2]: 0 (Herbicidal rate of 5% or less (almost no effect))
- effect on green foxtail (G) [3]: 5 (Herbicidal rate of 90% or more (almost completely withered))
- herbicidal effect rating, G: green foxtail [4]: 0 (Herbicidal rate of 5% or less (almost no effect))
- herbicidal effect rating, K: Italian ryegrass [5]: 0 (Herbicidal rate of 5% or less (almost no effect))
- effect on barnyard grass (H) [6]: 5 (Herbicidal rate of 90% or more (almost completely withered))
- herbicidal effect on E (rice flat sedge), rating 0-5 [7]: 3 (Herbicidal rate of 40% or more and less than 70%)
- Herbicidal effect on C: oval-leafed pondweed (grade 0-5) [8]: 5 (Herbicidal rate of 90% or more (almost completely withered))
- herbicidal effect rating, J: blackgrass [9]: 0 (Herbicidal rate of 5% or less (almost no effect))
- herbicidal effect rating, I: wild oat [10]: 0 (Herbicidal rate of 5% or less (almost no effect))
- effect on blackgrass (J) [11]: 1 (Herbicidal rate of 5% or more and less than 20%)
- herbicidal effect rating, N: redroot pigweed [12]: 3 (Herbicidal rate of 40% or more and less than 70%)
- herbicidal effect rating, C: oval-leafed pondweed [13]: 2 (Herbicidal rate of 20% or more and less than 40%)
- herbicidal effect rating, R: persian speedwell [14]: 4 (Herbicidal rate of 70% or more and less than 90%)

SMILES: CCCC(=O)Oc1c(C)nn(C)c(=O)c1-c1c(-c2ccccc2OC(F)(F)F)sc2ccc(F)cc12 [2-044]
- herbicidal effect rating, P: chickweed [1]: 3 (Herbicidal rate of 40% or more and less than 70%)
- herbicidal effect rating, A: late watergrass [2]: 2 (Herbicidal rate of 20% or more and less than 40%)
- effect on green foxtail (G) [3]: 5 (Herbicidal rate of 90% or more (almost completely withered))
- herbicidal effect rating, G: green foxtail [4]: 4 (Herbicidal rate of 70% or more and less than 90%)
- herbicidal effect rating, K: Italian ryegrass [5]: 0 (Herbicidal rate of 5% or less (almost no effect))
- effect on barnyard grass (H) [6]: 0 (Herbicidal rate of 5% or less (almost no effect))
- herbicidal effect on E (rice flat sedge), rating 0-5 [7]: 5 (Herbicidal rate of 90% or more (almost completely withered))
- Herbicidal effect on C: oval-leafed pondweed (grade 0-5) [8]: 0 (Herbicidal rate of 5% or less (almost no effect))
- herbicidal effect rating, J: blackgrass [9]: 0 (Herbicidal rate of 5% or less (almost no effect))
- herbicidal effect rating, I: wild oat [10]: 2 (Herbicidal rate of 20% or more and less than 40%)
- effect on blackgrass (J) [11]: 0 (Herbicidal rate of 5% or less (almost no effect))
- herbicidal effect rating, N: redroot pigweed [12]: 5 (Herbicidal rate of 90% or more (almost completely withered))
- herbicidal effect rating, C: oval-leafed pondweed [13]: 3 (Herbicidal rate of 40% or more and less than 70%)
- herbicidal effect rating, R: persian speedwell [14]: 4 (Herbicidal rate of 70% or more and less than 90%)
